Laboratory results reported in publication PMC2695604 (2009).

Target: isoleucyl-tRNA synthetase (IleRS) (Escherichia coli, UniProt P00956)
Experiment: affinity labeling with saturation kinetics of inactivation
Type: biochemical

Chain of isoleucyl-tRNA synthetase (IleRS) (P00956 2-938): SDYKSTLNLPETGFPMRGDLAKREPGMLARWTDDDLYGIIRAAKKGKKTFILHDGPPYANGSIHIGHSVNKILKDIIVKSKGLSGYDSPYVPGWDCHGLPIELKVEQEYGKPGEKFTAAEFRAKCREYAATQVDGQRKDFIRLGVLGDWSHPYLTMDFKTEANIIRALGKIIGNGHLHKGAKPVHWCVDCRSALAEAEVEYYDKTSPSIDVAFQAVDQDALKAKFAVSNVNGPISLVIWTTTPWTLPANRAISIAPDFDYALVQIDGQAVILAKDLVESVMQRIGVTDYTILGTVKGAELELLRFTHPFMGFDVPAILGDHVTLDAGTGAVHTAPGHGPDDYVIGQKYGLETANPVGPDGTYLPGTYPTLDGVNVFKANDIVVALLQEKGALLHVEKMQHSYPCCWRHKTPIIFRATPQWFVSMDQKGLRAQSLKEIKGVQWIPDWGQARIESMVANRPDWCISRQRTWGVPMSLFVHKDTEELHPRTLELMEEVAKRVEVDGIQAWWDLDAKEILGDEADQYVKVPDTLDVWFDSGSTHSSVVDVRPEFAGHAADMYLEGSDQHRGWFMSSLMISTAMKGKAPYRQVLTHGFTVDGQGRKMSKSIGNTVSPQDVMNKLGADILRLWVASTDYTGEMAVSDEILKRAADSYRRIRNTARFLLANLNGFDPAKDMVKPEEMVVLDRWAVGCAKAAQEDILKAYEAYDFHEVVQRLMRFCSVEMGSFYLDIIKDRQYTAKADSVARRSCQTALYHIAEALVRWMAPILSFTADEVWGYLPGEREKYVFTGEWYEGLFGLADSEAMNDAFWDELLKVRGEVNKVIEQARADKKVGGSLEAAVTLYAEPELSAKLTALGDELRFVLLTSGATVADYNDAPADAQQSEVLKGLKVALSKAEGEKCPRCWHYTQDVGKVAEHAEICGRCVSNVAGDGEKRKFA

`CC[C@H](C)[C@H](N)C(=O)CBr` [IBMK, L-isoleucine bromomethyl ketone] showed a KI (inactivation) of roughly 100 µM.
